Here are results for nine compounds from PMC8588467, “Rational Design 2-Hydroxypropylphosphonium Salts as Cancer Cell Mitochondria-Targeted Vectors: Synthesis, Structure, and Biological Properties” (Molecules, 2021).

Where two headings read alike, the source gives them in different places.

Assay [1] relates to HuTu 80 (human duodenal adenocarcinoma). As to the kind of experiment: MTT cytotoxicity, HuTu 80. Type of assay: cell-based. The conditions noted are these: for IC50: mean ± SD, triplicate; for SI HuTu 80: IC50 normal cells (WI38) / IC50 cancer cells, ns = no selectivity.
Assay [2] relates to A549 (human lung carcinoma). The assay can be described thus: MTT cytotoxicity, A549. Type of assay: cell-based. The conditions noted are these: for IC50: mean ± SD, triplicate; for SI A549: IC50 normal cells (WI38) / IC50 cancer cells, ns = no selectivity.
The subject of assay [3] is PC3 (human prostate adenocarcinoma). The assay can be described thus: MTT cytotoxicity, PC3. The conditions noted are these: for IC50: mean ± SD, triplicate; for SI PC3: IC50 normal cells (WI38) / IC50 cancer cells, ns = no selectivity.
Assay [4] relates to M-HeLa (human cervix epitheloid carcinoma). The assay can be described thus: MTT cytotoxicity, M-HeLa. The conditions noted are these: for IC50: MTT, mean ± SD, triplicate; for SI M-HeLa: IC50 normal cells (WI38) / IC50 cancer cells, ns = no selectivity. Type of assay: cell-based.
For assay [5], the system named is WI38 (diploid human embryo lung). The assay can be described thus: MTT cytotoxicity, normal cells WI38. The following applies: mean ± SD, triplicate, read-out: WI38 IC50 (normal cell line). Format: cell-based.
The subject of assay [6] is MCF-7 (human breast adenocarcinoma). The assay can be described thus: MTT cytotoxicity, MCF-7. Type of assay: cell-based. The following applies: for IC50: mean ± SD, triplicate; for SI MCF-7: IC50 normal cells (WI38) / IC50 cancer cells, ns = no selectivity.
Assay [7] concerns T98G glioblastoma cell line. The assay can be described thus: MTT cytotoxicity, T98G. Format: cell-based, human. The conditions noted are these: for IC50: MTT, mean ± SD, triplicate; for SI T98G: IC50 normal cells (WI38) / IC50 cancer cells, ns = no selectivity.
[8] abbreviates: Homo sapiens, read-out: IC50 PC3, MTT.

What is called IC50 is the concentration needed to halve the response being measured. Turning to `OC(CF)C[P+](c1ccccc1)(c1ccccc1)c1ccccc1` (stereo not drawn) [3c, (3-Fluoro-2-hydroxypropyl)triphenylphosphonium trifluoromethanesulfonate], the 50% inhibitory concentration (IC50) is 19.1 ± 1.6 µM in assay [1] (Homo sapiens, HuTu80, MTT); above 100 µM in assay [2] (Homo sapiens, A549, MTT); 53.5 ± 4.2 µM in assay [3] (setting [8]); 90.6 ± 8.6 µM in assay [4] (Homo sapiens, M-HeLa); 47.3 ± 3.8 µM in assay [5] (Homo sapiens, WI-38, MTT); 56.5 ± 4.5 µM in assay [6] (Homo sapiens, MCF7, MTT). Further, the half-inhibitory concentration (IC50) in assay [7] (Homo sapiens, T98G) stood at 52.1 ± 4.1 µM. Moreover, the “SI HuTu 80” value in assay [1] turned out to be 2.5. Moreover, the “SI A549” value in assay [2] was “ns”. In addition, the “SI PC3” value in assay [3] is recorded as “ns”. In assay [4], the “SI M-HeLa” value is recorded as “ns”. In addition, in assay [6], the “SI MCF-7” value is given as “ns”. Further, the “SI T98G” value in assay [7] was “ns”.
`OC(CI)C[P+](c1ccccc1)(c1ccccc1)c1ccccc1` (stereo not drawn) [3d, (2-Hydroxy-3-iodopropyl)triphenylphosphonium trifluoromethanesulfonate]: the IC50 in assay [1] (Homo sapiens, HuTu80, MTT) was 9.4 ± 0.7 µM; in assay [2] (Homo sapiens, A549, MTT), 74.2 ± 5.6 µM; in assay [3] (setting [8]), 39.1 ± 3.1 µM; in assay [4] (Homo sapiens, M-HeLa), 50 ± 4.3 µM; in assay [5] (Homo sapiens, WI-38, MTT), 35.2 ± 2.3 µM; in assay [6] (Homo sapiens, MCF7, MTT), 88.6 ± 7.1 µM. The IC50 in assay [7] (Homo sapiens, T98G) came out at 64 ± 4.8 µM. Moreover, the “SI HuTu 80” value in assay [1] turned out to be 4. Also, the “SI A549” value in assay [2] is recorded as “ns”. In addition, in assay [3], the “SI PC3” value was “ns”. The “SI M-HeLa” value in assay [4] is reported as “ns”. Moreover, in assay [6], the “SI MCF-7” value is on record as “ns”. Moreover, in assay [7], the “SI T98G” value was “ns”.
For the compound `COCC(O)C[P+](c1ccccc1)(c1ccccc1)c1ccccc1` (stereo not drawn) [3f, (2-Hydroxy-3-methoxypropyl)triphenylphosphonium trifluoromethanesulfonate], the “SI HuTu 80” value in assay [1] came to 1.5. Further, the IC50 in assay [1] (MTT) is 23.6 ± 1.8 µM; in assay [2] (MTT), 39 ± 3 µM; in assay [3] (read-out: IC50 PC3, MTT) it was 55.2 ± 4.5 µM; in assay [4], 56.2 ± 4.7 µM; in assay [5] (MTT) it was 35.6 ± 2.6 µM; in assay [6] (MTT), 60.7 ± 4.9 µM. In assay [7], this compound gave a half-maximal inhibitory concentration (IC50) of 60.4 ± 4.4 µM. For the same compound, the “SI A549” value in assay [2] is given as “ns”. Also, the “SI PC3” value in assay [3] is on record as “ns”. Moreover, the “SI M-HeLa” value in assay [4] is on record as “ns”. Also, the “SI MCF-7” value in assay [6] is recorded as “ns”. Besides, the “SI T98G” value in assay [7] was “ns”.
For the compound `CCOCC(O)C[P+](c1ccccc1)(c1ccccc1)c1ccccc1` (stereo not drawn) [3g, (3-Ethoxy-2-hydroxypropyl)triphenylphosphonium trifluoromethanesulfonate], the “SI HuTu 80” value in assay [1] is 1.6. In addition, the IC50 was found to be 18.4 ± 1.5 µM in assay [1] (MTT); 42.2 ± 3.2 µM in assay [2] (Homo sapiens, A549, MTT); 48.9 ± 3.9 µM in assay [3] (setting [8]); 63.7 ± 5.2 µM in assay [4] (Homo sapiens, M-HeLa); 30.1 ± 2.3 µM in assay [5] (Homo sapiens, WI-38, MTT); 66.8 ± 5.3 µM in assay [6] (Homo sapiens, MCF7, MTT). Further, it took 62.9 ± 4.6 µM to reach half-maximal inhibition in assay [7] (Homo sapiens, T98G) (IC50). In assay [2], the “SI A549” value is reported as “ns”. For the same compound, the “SI PC3” value in assay [3] is “ns”. Besides, the “SI M-HeLa” value in assay [4] was “ns”. The “SI MCF-7” value in assay [6] is “ns”. Also, the “SI T98G” value in assay [7] is “ns”.
For `OC(COCC(F)(F)C(F)F)C[P+](c1ccccc1)(c1ccccc1)c1ccccc1` (stereo not drawn) [3h, (2-Hydroxy-3-(2,2,3,3-tetrafluoropropoxy)propyl)triphenylphosphonium trifluoromethanesulfonate], the IC50 in assay [1] (Homo sapiens, HuTu80, MTT) is 28.9 ± 2.1 µM; in assay [2] (Homo sapiens, A549, MTT) it was 34.3 ± 2.6 µM; in assay [3] (setting [8]), 48.7 ± 3.7 µM; in assay [4] (Homo sapiens, M-HeLa), 100 ± 8.6 µM; in assay [5] (Homo sapiens, WI-38, MTT), 43.7 ± 3.5 µM; in assay [6] (Homo sapiens, MCF7, MTT) it was 64.4 ± 5 µM. This compound registered an IC50 in assay [7] (Homo sapiens, T98G) of 63.4 ± 4.8 µM. In assay [1], the “SI HuTu 80” value is given as “ns”. For the same compound, the “SI A549” value in assay [2] is reported as “ns”. Further, the “SI PC3” value in assay [3] is reported as “ns”. Also, the “SI M-HeLa” value in assay [4] was “ns”. Further, the “SI MCF-7” value in assay [6] is “ns”. Moreover, the “SI T98G” value in assay [7] is reported as “ns”.
As to `C=CCOCC(O)C[P+](c1ccccc1)(c1ccccc1)c1ccccc1` (stereo not drawn) [3i, (3-(Allyloxy)-2-hydroxypropyl)triphenylphosphonium trifluoromethanesulfonate], the “SI HuTu 80” value in assay [1] is 5. Besides, the IC50 was 7.1 ± 0.06 µM in assay [1] (MTT); 41 ± 3.3 µM in assay [2] (MTT); 71.8 ± 6.6 µM in assay [3] (read-out: IC50 PC3, MTT); 60.8 ± 5.2 µM in assay [4]; 34.2 ± 2.7 µM in assay [5] (MTT); 70.5 ± 5.6 µM in assay [6] (MTT). Moreover, in assay [7], inhibition was half-maximal at 50.4 ± 4 µM (IC50). In addition, in assay [2], the “SI A549” value is recorded as “ns”. In addition, in assay [3], the “SI PC3” value is on record as “ns”. The “SI M-HeLa” value in assay [4] was “ns”. In addition, in assay [6], the “SI MCF-7” value is “ns”. The “SI T98G” value in assay [7] was “ns”.
`CCCCCCCCCCCCCCCCCC(=O)OCC(O)C[P+](c1ccccc1)(c1ccccc1)c1ccccc1` (stereo not drawn) [3l, (2-Hydroxy-3-stearoyloxy-propyl)triphenylphosphoniumtrifluoromethanesulfonate]: the IC50 came out at 45 ± 3.5 µM in assay [1] (Homo sapiens, HuTu80, MTT); 75.1 ± 5.7 µM in assay [2] (Homo sapiens, A549, MTT); 53.8 ± 4.4 µM in assay [3] (setting [8]); 59.2 ± 5.1 µM in assay [4] (Homo sapiens, M-HeLa); 50 ± 3.9 µM in assay [5] (Homo sapiens, WI-38, MTT); 52.8 ± 4.2 µM in assay [6] (Homo sapiens, MCF7, MTT). Besides, half-maximal inhibition in assay [7] (Homo sapiens, T98G) (IC50) required 55.9 ± 5 µM. In assay [1], the “SI HuTu 80” value is listed as “ns”. Besides, the “SI A549” value in assay [2] is reported as “ns”. The “SI PC3” value in assay [3] is on record as “ns”. Further, the “SI M-HeLa” value in assay [4] is “ns”. Further, the “SI MCF-7” value in assay [6] is “ns”. Besides, in assay [7], the “SI T98G” value is listed as “ns”.
For `COCC(O)C[P+](c1ccccc1)(c1ccccc1)c1ccccc1` (stereo not drawn) [4a], the IC50 in assay [1] (Homo sapiens, HuTu80, MTT) is 26.7 ± 2.1 µM; in assay [2] (Homo sapiens, A549, MTT) it was 36 ± 2.8 µM; in assay [3] (setting [8]) it was 50.3 ± 4 µM; in assay [4] (Homo sapiens, M-HeLa), 57.3 ± 4.7 µM; in assay [5] (Homo sapiens, WI-38, MTT), 36.5 ± 2.8 µM; in assay [6] (Homo sapiens, MCF7, MTT), 75.7 ± 5.9 µM. Moreover, in assay [7] (Homo sapiens, T98G), the IC50 is 55.3 ± 4.4 µM. For the same compound, the “SI HuTu 80” value in assay [1] is given as 1.4. Besides, the “SI A549” value in assay [2] is given as “ns”. In addition, the “SI PC3” value in assay [3] is on record as “ns”. The “SI M-HeLa” value in assay [4] is “ns”. The “SI MCF-7” value in assay [6] is “ns”. Also, the “SI T98G” value in assay [7] is “ns”.
For the compound `CCOCC(O)C[P+](c1ccccc1)(c1ccccc1)c1ccccc1.[I-]` (stereo not drawn) [4b, (3-Ethoxy-2-hydroxypropyl)triphenylphosphonium iodide], the “SI HuTu 80” value in assay [1] was 7. Besides, the concentration for half-maximal inhibition (IC50) was 3.4 ± 0.3 µM in assay [1] (MTT); 39.1 ± 3.1 µM in assay [2] (MTT); 42.4 ± 3.3 µM in assay [3] (read-out: IC50 PC3, MTT); 68.4 ± 5.9 µM in assay [4]; 22.9 ± 1.9 µM in assay [5] (MTT); 60.3 ± 4.7 µM in assay [6] (MTT). The compound also displayed a 50% inhibitory concentration (IC50) in assay [7] of 49.7 ± 4 µM. Also, in assay [2], the “SI A549” value is listed as “ns”. The “SI PC3” value in assay [3] is listed as “ns”. Besides, the “SI M-HeLa” value in assay [4] is reported as “ns”. Moreover, the “SI MCF-7” value in assay [6] is reported as “ns”. Moreover, in assay [7], the “SI T98G” value was “ns”.
